For 16 compounds, IC50 results are on record in patent publication US20260327191A1, “GSK3a INHIBITORS AND METHODS OF USE THEREOF” (Blueprint Medicines Corporation, priority 2023, published 2026).

For test [1], the target named is T1, human GSK3α (Homo sapiens, UniProt P49840).
T1 construct: Full length human GSK3α or GSK3B expressed as N-terminal GST fusion proteins; GST (N); purchased Carna Biosciences (Japan); host or cells: baculovirus host
Kind of test: In vitro enzymatic activity assay, GSK3α. Conditions: 1.0 mM ATP, 1.0 μM peptide substrate, 120 min, 25° C, read-out: Enzyme GSK3α (IC50). The format is biochemical.

The target of test [2] is T2, GSK3A (Homo sapiens, UniProt P49840).
T2 construct: expressed in transfected cells
As to the kind of experiment: NanoBRET cellular target engagement assay, Nanoluc-GSK3A in HEK293 cells. The format is cell-based. Conditions: NanoBRET GSK3α IC50, HEK293 cells, tracer K-8, 2 hours, 37° C.

Test [3] addresses T3, GSK3B (Homo sapiens, UniProt P49841). As to the kind of experiment: NanoBRET cellular target engagement assay, Nanoluc-GSK3B in HEK293 cells. The format is cell-based. The arrangement: expressed in transfected cells. The note with it: NanoBRET GSK3β IC50, HEK293 cells, tracer K-8, 2 hours, 37° C.
Test [4] concerns the target T3, GSK3B. As to the kind of experiment: In vitro enzymatic activity assay, GSK3β. The format is biochemical. The arrangement: Full length human GSK3α or GSK3B expressed as N-terminal GST fusion proteins; GST (N); purchased Carna Biosciences (Japan); host or cells: baculovirus host. Conditions: 1.0 mM ATP, 1.0 μM peptide substrate, 120 min, 25° C, read-out: Enzyme GSK3β (IC50).

T3 sequence (P49841 whole entry, the tested form may be a part): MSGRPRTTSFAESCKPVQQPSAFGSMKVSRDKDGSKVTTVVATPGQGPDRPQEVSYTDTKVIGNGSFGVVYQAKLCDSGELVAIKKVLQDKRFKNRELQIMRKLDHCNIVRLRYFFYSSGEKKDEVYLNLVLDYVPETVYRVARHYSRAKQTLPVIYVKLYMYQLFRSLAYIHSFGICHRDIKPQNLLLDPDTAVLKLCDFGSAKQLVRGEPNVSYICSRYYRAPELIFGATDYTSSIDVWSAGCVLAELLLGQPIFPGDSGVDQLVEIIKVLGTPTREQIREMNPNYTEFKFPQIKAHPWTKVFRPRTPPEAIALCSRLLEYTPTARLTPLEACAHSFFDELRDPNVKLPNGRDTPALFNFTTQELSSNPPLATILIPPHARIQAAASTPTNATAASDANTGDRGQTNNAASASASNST
T2 sequence (P49840 whole entry): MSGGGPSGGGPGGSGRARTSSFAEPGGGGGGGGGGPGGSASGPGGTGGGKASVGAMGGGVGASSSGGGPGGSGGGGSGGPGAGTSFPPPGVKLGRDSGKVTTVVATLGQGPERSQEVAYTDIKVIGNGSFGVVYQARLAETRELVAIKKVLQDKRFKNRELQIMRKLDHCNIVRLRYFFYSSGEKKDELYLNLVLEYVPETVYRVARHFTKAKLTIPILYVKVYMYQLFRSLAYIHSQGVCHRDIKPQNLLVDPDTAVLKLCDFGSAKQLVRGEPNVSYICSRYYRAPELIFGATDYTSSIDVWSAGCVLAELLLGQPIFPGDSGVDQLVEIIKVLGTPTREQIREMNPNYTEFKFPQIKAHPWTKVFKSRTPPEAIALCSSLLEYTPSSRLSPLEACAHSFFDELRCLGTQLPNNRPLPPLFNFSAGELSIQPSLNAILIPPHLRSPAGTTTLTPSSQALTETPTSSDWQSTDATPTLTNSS
T1 sequence (P49840 whole entry, the tested form may be a part): as the sequence (P49840 whole entry) above

Regarding `CCOc1cc(C)c(-n2cnc(N)c(C(=O)Nc3cncc([C@H]4CCCCN4)c3)c2=O)c(C)c1` [Example 91, (R)-4-amino-1-(4-ethoxy-2,6-dimethylphenyl)-6-oxo-N-(5-(piperidin-2-yl)pyridin-3-yl)-1,6-dihydropyrimidine-5-carboxamide], the IC50 in test [1] was determined as 6 nM; in test [2], 3.7 nM; in test [3], 201 nM; in test [4], 299 nM.

Consider `CCC[C@@H](N)c1cncc(NC(=O)c2c(N)ncn(-c3c(C)cc(OCC)cc3C)c2=O)c1` [Example 94, (R)-4-amino-N-(5-(1-aminobutyl)pyridin-3-yl)-1-(4-ethoxy-2,6-dimethylphenyl)-6-oxo-1,6-dihydropyrimidine-5-carboxamide], for which the IC50 in test [1] stood at 7.6 nM; in test [2] it was 6.6 nM; in test [3] it was 384 nM; in test [4], 598 nM.

In the case of `Cc1cc(C(F)F)cc(C)c1-n1cnc(N)c(C(=O)Nc2cncc([C@H]3CCCCN3)c2)c1=O` [Example 97, (R)-4-amino-1-(4-(difluoromethyl)-2,6-dimethylphenyl)-6-oxo-N-(5-(piperidin-2-yl)pyridin-3-yl)-1,6-dihydropyrimidine-5-carboxamide], the IC50 in test [1] worked out at 3.6 nM; in test [2], 1.8 nM; in test [3] it was 121 nM; in test [4], 230 nM.

Regarding `COCc1cc(C)c(-n2cnc(N)c(C(=O)Nc3cncc([C@H]4CCCCN4)c3)c2=O)c(C)c1` [Example 98, (R)-4-amino-1-(4-(methoxymethyl)-2,6-dimethylphenyl)-6-oxo-N-(5-(piperidin-2-yl)pyridin-3-yl)-1,6-dihydropyrimidine-5-carboxamide], the IC50 in test [1] worked out at 4.6 nM; in test [2], 2.5 nM; in test [3] it was 134 nM; in test [4], 254 nM.

In the case of `CNCc1cncc(NC(=O)c2c(N)ncn(-c3c(C)cc(COC)cc3C)c2=O)c1` [Example 99, 4-amino-1-(4-(methoxymethyl)-2,6-dimethylphenyl)-N-(5-((methylamino)methyl)pyridin-3-yl)-6-oxo-1,6-dihydropyrimidine-5-carboxamide], the IC50 was found to be 20.5 nM in test [1], 7.4 nM in test [2], 565 nM in test [3] and 1020 nM in test [4].

As to `CNCc1cncc(NC(=O)c2c(N)ncn(-c3c(C)cc(C(F)F)cc3C)c2=O)c1` [Example 105, 4-amino-1-(4-(difluoromethyl)-2,6-dimethylphenyl)-N-(5-((methylamino)methyl)pyridin-3-yl)-6-oxo-1,6-dihydropyrimidine-5-carboxamide], the IC50 in test [1] came out at 19.3 nM; in test [2], 7.2 nM; in test [3], 577 nM; in test [4], 1130 nM.

Regarding `CCC[C@@H](N)c1cncc(NC(=O)c2c(N)ncn(-c3c(C)cc(C(F)F)cc3C)c2=O)c1` [Example 106, (R)-4-amino-N-(5-(1-aminobutyl)pyridin-3-yl)-1-(4-(difluoromethyl)-2,6-dimethylphenyl)-6-oxo-1,6-dihydropyrimidine-5-carboxamide], the IC50 in test [1] was determined as 4.5 nM; in test [2], 2.8 nM; in test [3] it was 195 nM; in test [4] it was 279 nM.

Regarding `Nc1ncn(-c2c(Cl)cc(OC(F)(F)F)cc2Cl)c(=O)c1C(=O)Nc1cncc([C@@H]2CCCN2)c1` [Example 109, (S)-4-amino-1-(2,6-dichloro-4-(trifluoromethoxy)phenyl)-6-oxo-N-(5-(pyrrolidin-2-yl)pyridin-3-yl)-1,6-dihydropyrimidine-5-carboxamide], the IC50 is 15.6 nM in test [1], 8.4 nM in test [2], 567 nM in test [3] and 803 nM in test [4].

Regarding `Cc1cc(OC(F)(F)F)cc(C)c1-n1cnc(N)c(C(=O)Nc2cncc([C@H]3CCCCN3)c2)c1=O` [Example 110, (R)-4-amino-1-(2,6-dimethyl-4-(trifluoromethoxy)phenyl)-6-oxo-N-(5-(piperidin-2-yl)pyridin-3-yl)-1,6-dihydropyrimidine-5-carboxamide], the IC50 in test [1] was found to be 9.9 nM; in test [2], 3.7 nM; in test [3] it was 335 nM; in test [4], 568 nM.

Take `Nc1ncn(-c2c(Cl)cc(C(F)(F)F)cc2Cl)c(=O)c1C(=O)Nc1cncc([C@@H]2CCCN2)c1` [Example 118, (S)-4-amino-1-(2,6-dichloro-4-(trifluoromethyl)phenyl)-6-oxo-N-(5-(pyrrolidin-2-yl)pyridin-3-yl)-1,6-dihydropyrimidine-5-carboxamide]: the IC50 in test [1] was 11.2 nM; in test [2], 9.4 nM; in test [3], 566 nM; in test [4], 450 nM.

`Nc1ncn(-c2c(Cl)cc(C(F)(F)F)cc2Cl)c(=O)c1C(=O)Nc1cncc([C@@H]2CCCCN2)c1` [Example 119, (S)-4-amino-1-(2,6-dichloro-4-(trifluoromethyl)phenyl)-6-oxo-N-(5-(piperidin-2-yl)pyridin-3-yl)-1,6-dihydropyrimidine-5-carboxamide]: the IC50 was determined as 8.1 nM in test [1], 8.1 nM in test [2], 502 nM in test [3] and 414 nM in test [4].

Turning to `NCc1cncc(NC(=O)c2c(N)ncn(-c3c(Cl)cc(C(F)(F)F)cc3Cl)c2=O)c1` [Example 120, 4-amino-N-(5-(aminomethyl)pyridin-3-yl)-1-(2,6-dichloro-4-(trifluoromethyl)phenyl)-6-oxo-1,6-dihydropyrimidine-5-carboxamide], the IC50 in test [1] worked out at 9.4 nM; in test [2] it was 4.4 nM; in test [3], 274 nM; in test [4], 442 nM.

Turning to `CN(C)c1cc(Cl)c(-n2cnc(N)c(C(=O)Nc3cncc([C@@H]4CCCCN4)c3)c2=O)c(Cl)c1` [Example 123, (S)-4-amino-1-(2,6-dichloro-4-(dimethylamino)phenyl)-6-oxo-N-(5-(piperidin-2-yl)pyridin-3-yl)-1,6-dihydropyrimidine-5-carboxamide], the IC50 in test [1] is 4.8 nM; in test [2] it was 3.3 nM; in test [3], 203 nM; in test [4], 266 nM.

As for `CC(C)Oc1cc(Cl)c(-n2cnc(N)c(C(=O)Nc3cncc([C@@H]4CCCCN4)c3)c2=O)c(Cl)c1` [Example 124, (S)-4-amino-1-(2,6-dichloro-4-isopropoxyphenyl)-6-oxo-N-(5-(piperidin-2-yl)pyridin-3-yl)-1,6-dihydropyrimidine-5-carboxamide], the IC50 in test [1] is 7 nM; in test [2], 7.8 nM; in test [3], 404 nM; in test [4], 393 nM.

For the compound `CCCOc1cc(C)c(-n2cnc(N)c(C(=O)Nc3cncc([C@H]4CCCCN4)c3)c2=O)c(C)c1` [Example 125, (R)-4-amino-1-(2,6-dimethyl-4-propoxyphenyl)-6-oxo-N-(5-(piperidin-2-yl)pyridin-3-yl)-1,6-dihydropyrimidine-5-carboxamide], the IC50 in test [1] is 4.9 nM; in test [2], 2.7 nM; in test [3], 163 nM; in test [4], 296 nM.

Regarding `CCCOc1cc(C)c(-n2cnc(N)c(C(=O)Nc3cncc(CNC)c3)c2=O)c(C)c1` [Example 127, 4-amino-1-(2,6-dimethyl-4-propoxyphenyl)-N-(5-((methylamino)methyl)pyridin-3-yl)-6-oxo-1,6-dihydropyrimidine-5-carboxamide], the IC50 in test [1] turned out to be 18.6 nM; in test [2] it was 9.6 nM; in test [3], 650 nM; in test [4] it was 767 nM.
